Test results published in patent publication US10689425B2, “Collagen-binding synthetic peptidoglycans, preparation, and methods of use” (Purdue Research Foundation, priority 2008, dated 2020).
Each block holds one molecule with its values, some of them ahead of it. Groups on a side chain read outwards from the residue. *: point of attachment. PDPH = heterobifunctional sulfhydryl-reactive crosslinker; Dansyl = CN(C)c1cccc2c(S(=O)(=O)*)cccc12

Legend:
collagen [1] = assay: Microplate fluorescence binding of dansyl-labelled peptide or conjugate to immobilized collagen; settings: collagen vs BSA and untreated wells; 100 μM to 10 nM
Description: Binding assays were done in a 96-well high-binding plate, black with a clear bottom (Costar). Collagen was compared to untreated wells and BSA coated wells. Collagen and BSA were immobilized at 37° C. for 1 hr by incubating 90 μL/well at concentrations of 2 mg/mL in 10 mM HCl and 1×PBS, respectively. Each well was washed 3× with 1×PBS after incubating. Z-SILY was dissolved in 1×PBS at concentrations from 100 μM to 10 nM in 10-fold dilutions. Wells were incubated for 30 min at 37° C. and rinsed 3× with PBS and then filled with 90 μL of 1×PBS. Fluorescence readings were taken on an M5 Spectramax Spectrophotometer (Molecular Devices) at excitation/emission wavelengths of 335 nm/490 nm respectively.
Binding assays were done in a 96-well high binding plate, black with a clear bottom (Costar). Collagen was compared to untreated wells and BSA coated wells. Collagen and BSA were immobilized at 37° C. for 1 hr by incubating 90 μL/well at concentrations of 2 mg/mL in 10 mM HCl and 1×PBS respectively. […]
Wells were preincubated with DS at 37° C. for 30 min to eliminate nonspecific binding of DS to collagen. […] Fluorescence readings were taken on an M5 Spectramax Spectrophotometer (Molecular Devices) at excitation/emission wavelengths of 335 nm/490 nm respectively.
The fluorescence binding assays described for DS-ZSILY was performed with peptide sequence ZSYIRIADTNITGC (ZDc13).

collagen [2] = assay: SILY binding to collagen (Biacore surface plasmon resonance)
Description: Biacore studies were performed on a Biacore 2000 using a CM-3 chip (Biacore, Inc., Piscataway, N.J.). The CM-3 chip is coated with covalently attached carboxymethylated dextran, which allows for attachment of the substrate collagen via free amine groups. Flow cells (FCs) 1 and 2 were used, with FC-1 as the reference cell and FC-2 as the collagen immobilized cell. Each FC was activated with EDC-NHS, and 1500RU of collagen was immobilized on FC-2 by flowing 1 mg/mL collagen in sodium acetate, pH 4, buffer at 5 μL/min for 10 min. Unreacted NHS-ester sites were capped with ethanolamine; the control FC-1 was activated and capped with ethanolamin.
To determine peptide binding affinity, SILY was dissolved in 1×HBS-EP buffer (Biacore) at varying concentrations from 100 uM to 1.5 μm in 2-fold dilutions. […] The first 10 injections were buffer injections, which help to prime the system, followed by randomized sample injections, run in triplicate. Analysis was performed using BIAevaluation software (Biacore).

Type I collagen gels = target: T1, Type I collagen gels (Bos taurus, UniProt P02453+P02465); assay: Cryo-SEM of type I collagen gels (fibril diameter, sheet distance, fibril density); settings: for Fibril diameter: Example 29, images at 20,000×, α=0.05
T1 construct: purchased Inamed, Freemont, Calif; (Nutragen)
Description: (§1) Gels were made with Nutragen collagen (Inamed, Freemont, Calif.) at a final concentration of 4 mg/mL collagen. Nutragen stock is 6.4 mg/mL in 10 mM HCl. Gel preparation was performed on ice, and fresh samples were made before each test. The collagen solution was adjusted to physiologic pH and salt concentration, by adding appropriate volumes of 10×PBS (phosphate buffered saline), 1×PBS, and 1M NaOH. For most experiments, samples of DS, decorin, DS-SILY, or DS-SYIR were added at a 10:1 collagen:sample molar ratio by a final 1×PBS addition (equal volumes across treatments) in which the test samples were dissolved at appropriate concentrations. In this way, samples are constantly kept at pH 7.4 and physiologic salt concentration. Collagen-alone samples received a 1×PBS addition with no sample dissolved. Fibrillogenesis will be induced by incubating neutralized collagen solutions at 37° C. overnight in a humidified chamber to avoid dehydration. Gel solutions with collagen:sample molar ratios of other than 10:1 were prepared similarly.
Gels for cryo-SEM were formed, as in EXAMPLE 16, directly on the SEM stage and incubated at 37° C. overnight. The stages were then secured in a cryo-holder and plunged into liquid nitrogen slush. Samples were then transferred to a Gatan Alto 2500 pre-chamber cooled to −170° C. under vacuum. A free-break surface was created with a cooled scalpel, and each sample evaporated under sublimation conditions for 20 min. The sample was coated by platinum sputter coating for 120 s. […] Fibril diameter was calculated using ImageJ software (NIH) measuring individual fibrils by hand (drawing a line across fibrils and measuring its length after properly setting the scale). There were 3 observers, 3 separate images per treatment, 10 fibrils recorded per image giving a total of 90 measurements per treatment. Sheet distance was calculated using ImageJ, again measuring by hand. […]
Using a modification of EXAMPLE 21 fibril diameters were measured by cryo-SEM. Fibril diameters from cryo-SEM images taken at 20,000× were measured using ImageJ software (NIH). At least 45 fibrils were measured for each treatment. […]
Collagen gels were formed in the presence of each additive at a 10:1 molar ratio, as described in EXAMPLE 16, directly on the SEM stage, processed, and imaged as described. Images at 10,000× were analyzed for fibril density calculations. Images were converted to 8-bit black and white, and threshold values for each image were determined using ImageJ software (NIH). […] The ratio of white to black area was calculated using MatLab software. All measurements were taken in triplicate and thresholds were determined by an observer blinded to the treatment.

[3] = tested on: Human aortic smooth muscle cells; assay: Collagen remodeling: hydroxyproline content in cell medium; format: cell-based; settings: cultures up to 30 days
Description: Following a method by Grassl, et al. (Grassl, et al., Journal of Biomedical Materials Research 2002, 60, (4), 607-612), which is herein incorporated in its entirety, collagen gels with or without synthetic PG mimics were formed as described in EXAMPLE 16. Human aortic smooth muscle cells (Cascade Biologics, Portland, Oreg.) were seeded within collagen gels by adding 4×10^6 cells/mL to the neutralized collagen solution prior to incubation. The cell-collagen solutions were pipetted into an 8-well Lab-Tek chamber slide and incubated in a humidified 37° C. and 5% CO2 incubator. After gelation, the cell-collagen gels will be covered with 1 mL Medium 231 as prescribed by Cascade. Every 3-4 days, the medium was removed from the samples and the hydroxyproline content measured by a standard hydroxyproline assay (Reddy, 1996).
To measure degraded collagen in the supernatant medium, the sample was lyophilized, the sample hydrolyzed in 2M NaOH at 120° C. for 20 min. After cooling, free hydroxyproline was oxidized by adding chloramine-T (Sigma) and reacting for 25 min at room temperature. Ehrlich's aldehyde reagent (Sigma) was added and allowed to react for 20 min at 65° C. and followed by reading the absorbance at 550 nm on an M-5 spectrophotometer (Molecular Devices). […] Cultures were incubated for up to 30 days and three samples of each treatment measured. […]

collagen [4] = target: T2, collagen (Bos taurus, UniProt P02453+P02465); assay: Collagen fibrillogenesis by turbidity (absorbance at 313 nm); format: biochemical; settings: 1:1 collagen:additive molar ratio
T2 construct: purchased Inamed, Freemont, Calif; (Nutragen)
Description: as §1
Collagen fibrillogenesis was monitored by measuring turbidity related absorbance at 313 nm providing information on rate of fibrillogenesis and fibril diameter. […] A SpectraMax M5 at 37° C. was used to measure absorbance at 313 nm at 30 s intervals for 6 hours. […]

[5] = tested on: Human coronary artery smooth muscle cells (HCA SMC); assay: Gel compaction by cells seeded in collagen gels; format: cell-based
Description: Human coronary artery smooth muscle cells (HCA SMC) (Cascade Biologics) were cultured in growth medium (Medium 231 supplemented with smooth muscle growth factor). Cells from passage 3 were used for all experiments. Differentiation medium (Medium 231 supplemented with 1% FBS and 1× pen/strep) was used for all experiments unless otherwise noted.
Collagen gels were prepared with each additive as described with the exception that the 1×PBS example addition was omitted to accommodate the addition of cells in media. After incubating on ice for 30 min, HCA SMCs in differentiation medium were added to the gel solutions to a final concentration of 1×10^6 cells/mL. Gels were formed in quadruplicate in 48-well non-tissue culture treated plates (Costar) for 6 hrs before adding 500 μL/well differentiation medium. Gels were freed from the well edges after 24 hrs. Medium was changed every 2-3 days and images for compaction were taken at the same time points using a Gel Doc System (Bio-Rad). The cross-sectional area of circular gels correlating to degree of compaction was determined using ImageJ software (NIH). Gels containing no cells were used as a negative control and cells in collagen gels absent additive were used as a positive control. By day 10 all gels had compacted to approximately 10% of the original gel area, and differences between additives were small.

T1 sequence (P02453 162-1217 limits assumed): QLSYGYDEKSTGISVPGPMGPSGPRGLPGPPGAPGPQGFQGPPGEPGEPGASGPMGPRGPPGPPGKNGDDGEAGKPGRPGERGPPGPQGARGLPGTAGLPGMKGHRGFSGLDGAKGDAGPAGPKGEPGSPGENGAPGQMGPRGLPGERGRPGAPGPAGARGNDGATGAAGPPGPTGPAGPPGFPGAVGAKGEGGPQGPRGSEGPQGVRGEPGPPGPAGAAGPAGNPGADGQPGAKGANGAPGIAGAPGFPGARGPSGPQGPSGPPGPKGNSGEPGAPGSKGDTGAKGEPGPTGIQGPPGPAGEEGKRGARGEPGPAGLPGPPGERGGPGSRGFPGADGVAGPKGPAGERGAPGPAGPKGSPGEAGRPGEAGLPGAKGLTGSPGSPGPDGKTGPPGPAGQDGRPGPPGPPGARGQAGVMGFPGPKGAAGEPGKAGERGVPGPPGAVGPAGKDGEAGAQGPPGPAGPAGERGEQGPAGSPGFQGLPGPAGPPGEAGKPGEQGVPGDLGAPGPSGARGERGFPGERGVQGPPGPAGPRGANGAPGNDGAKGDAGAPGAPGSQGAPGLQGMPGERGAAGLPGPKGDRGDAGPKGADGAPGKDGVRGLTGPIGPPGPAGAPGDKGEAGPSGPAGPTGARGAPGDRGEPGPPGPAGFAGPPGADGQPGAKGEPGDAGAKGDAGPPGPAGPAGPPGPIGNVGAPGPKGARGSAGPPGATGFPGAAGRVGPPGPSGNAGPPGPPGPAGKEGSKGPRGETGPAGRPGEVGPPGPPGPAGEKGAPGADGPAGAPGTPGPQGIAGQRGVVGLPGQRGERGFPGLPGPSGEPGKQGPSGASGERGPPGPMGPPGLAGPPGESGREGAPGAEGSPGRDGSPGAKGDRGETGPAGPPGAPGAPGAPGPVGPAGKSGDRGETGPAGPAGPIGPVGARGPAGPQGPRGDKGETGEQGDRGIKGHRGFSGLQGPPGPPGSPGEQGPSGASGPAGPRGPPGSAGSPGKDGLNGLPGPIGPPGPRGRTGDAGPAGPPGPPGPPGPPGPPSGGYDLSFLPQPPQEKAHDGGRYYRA
T1 sequence (P02465 80-1117 limits assumed): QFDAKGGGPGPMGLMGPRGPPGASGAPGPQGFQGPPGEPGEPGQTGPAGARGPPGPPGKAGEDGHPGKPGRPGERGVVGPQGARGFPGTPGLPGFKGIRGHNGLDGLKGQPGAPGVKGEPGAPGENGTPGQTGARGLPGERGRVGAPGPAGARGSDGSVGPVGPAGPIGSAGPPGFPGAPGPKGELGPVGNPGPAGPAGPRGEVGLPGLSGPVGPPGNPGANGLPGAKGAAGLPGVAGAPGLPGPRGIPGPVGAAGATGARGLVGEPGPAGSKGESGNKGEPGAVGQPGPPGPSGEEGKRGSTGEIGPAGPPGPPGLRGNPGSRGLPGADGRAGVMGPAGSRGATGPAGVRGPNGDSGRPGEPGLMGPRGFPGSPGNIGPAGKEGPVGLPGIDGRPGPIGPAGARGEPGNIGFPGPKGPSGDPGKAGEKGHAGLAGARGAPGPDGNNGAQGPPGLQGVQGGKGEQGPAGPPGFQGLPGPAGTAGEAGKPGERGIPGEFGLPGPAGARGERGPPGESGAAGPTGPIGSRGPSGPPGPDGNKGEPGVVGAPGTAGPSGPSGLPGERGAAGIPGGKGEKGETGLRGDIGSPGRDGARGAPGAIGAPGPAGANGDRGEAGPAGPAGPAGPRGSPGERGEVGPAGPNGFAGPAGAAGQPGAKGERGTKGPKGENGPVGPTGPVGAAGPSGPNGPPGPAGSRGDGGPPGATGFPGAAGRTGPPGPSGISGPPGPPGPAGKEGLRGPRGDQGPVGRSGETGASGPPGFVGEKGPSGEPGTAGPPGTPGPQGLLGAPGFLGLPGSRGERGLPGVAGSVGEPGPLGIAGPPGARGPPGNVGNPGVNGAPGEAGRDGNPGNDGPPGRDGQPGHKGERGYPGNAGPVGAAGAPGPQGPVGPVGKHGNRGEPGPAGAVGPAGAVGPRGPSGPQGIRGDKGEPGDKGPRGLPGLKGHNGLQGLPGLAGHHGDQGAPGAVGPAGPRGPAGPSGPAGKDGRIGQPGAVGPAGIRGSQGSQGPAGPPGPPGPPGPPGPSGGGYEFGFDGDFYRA
T2 sequence (P02453 162-1217 limits assumed): as the sequence (P02453 162-1217 limits assumed) above
T2 sequence (P02465 80-1117 limits assumed): as the sequence (P02465 80-1117 limits assumed) above

Molecule: DS-Z-SILY: dermatan sulfate conjugated to dansyl-modified peptide Z-SILY (Dansyl-GRRANAALKAGELYKSILYGC([PDPH-oxidized dermatan sulfate])-NH2)
- Specific binding to collagen-treated wells (collagen [1]): binds specifically to the collagen-treated wells over BSA and untreated wells

Molecule: DS-ZDc13: dermatan sulfate conjugate of ZSYIRIADTNITGC (ZDc13)
- Specific binding to collagen-treated wells (collagen [1]): binds specifically to the collagen surface in a dose-dependent manner

- Reversibility of binding to collagen (collagen [2]; association/disassociation curves, FIG. 3): binds reversibly with collagen
- Kd (collagen [2]; calculated from the on-off binding kinetics, collagen immobilized on CM-3 chip): 1200 nM
- Fibril density (ratio of fibril containing area to void space) (Type I collagen gels; 10:1 collagen:additive, images at 10,000×): significantly greater fibril density
- Fibril diameter (Type I collagen gels): decrease in fibril diameter
Molecule: RRANAALKAGELYKSILYGC
- Collagen degradation by hydroxyproline content in cell medium [3]: greater collagen degradation compared to collagen alone

- Fibril diameter (Type I collagen gels): does not affect fibril diameter
Molecule: SYIRIADTNITGC [Dc13, Dc13 peptide]
- Effect on fibrillogenesis (collagen [4]): little effect on fibrillogenesis compared to collagen alone
- Collagen degradation by hydroxyproline content in cell medium [3]: greater collagen degradation compared to collagen alone

B1: Decorin: proteoglycan known to influence collagen fibrillogenesis (protein, UniProt P07585 31-359, looked up)
Decorin: DEASGIGPEVPDDRDFEPSLGPVCPFRCQCHLRVVQCSDLGLDKVPKDLPPDTTLLDLQNNKITEIKDGDFKNLKNLHALILVNNKISKVSPGAFTPLVKLERLYLSKNQLKELPEKMPKTLQELRAHENEITKVRKVTFNGLNQMIVIELGTNPLKSSGIENGAFQGMKKLSYIRIADTNITSIPQGLPPSLTELHLDGNKISRVDAASLKGLNNLAKLGLSFNSISAVDNGSLANTPHLRELHLDNNKLTRVPGGLAEHKYIQVVYLHNNNISVVGSSDFCPPGHNTKKASYSGVSLFSNPVQYWEIQPSTFRCVYVRSAIQLGNYK
- Fibril diameter (Type I collagen gels): significantly decrease fibril diameter over collagen or collagen+dermatan sulfate
- Gel compaction, statistical significance ([5]; Day 7): significant against all samples
- Gel compaction, statistical significance ([5]; Days 3 and 5): significant relative to collagen and DS
